Laboratory results taken from EPA's ToxValDB 9.5.

Key:
Rattus norvegicus = settings: subchronic; duration: 90 days; oral; diet; M; Crl:CD(SD) BR; Body Weight Changes: Weight gain decrease + Absolute Organ Weight: Liver increase + Relative Organ Weight: Liver increase + Histopathology: …
Monkey = settings: oral
Oryctolagus sp. = settings: acute, dermal; for LOAEL: duration: 1 days
Bird = settings: subchronic, duration: 8 week, oral, drinking water, M, Japanese quail
Labeo boga = settings: whole body
Megascops sp. = settings: oral
Neovison sp. = settings: repeat dose other; oral; Mink
[1] = chronic, duration: 26 weeks, M, Cynomolgus, Body Weight: 12% decrease by week 10
[2] = chronic, duration: 26 weeks, M, Cynomolgus, Endocrine: Significant decrease in serum TT4 (27-35%) and FT4 (30-38%)
[3] = short-term, duration: 7 day, M, Medaka, liver IL-1Beta/Beta-actin mRNA ratio + liver IL-6/Beta-actin mRNA ratio
[4] = short-term, duration: 21 day, M/F, mRNA expression levels of IgM in spleen + mRNA expression levels of IL-1 beta in spleen + mRNA expression levels of myd88 in spleen

O=C([O-])C(F)(F)C(F)(F)C(F)(F)C(F)(F)C(F)(F)C(F)(F)C(F)(F)F.[NH4+] [Ammonium perfluorooctanoate]
NOAEL (Rattus norvegicus): 0.096 mg/kg-day | LOAEL (Monkey; [1]): 20 mg/kg-day | NOAEL (Monkey; [1]): 10 mg/kg-day | LOAEL (Monkey; [2]): 10 mg/kg-day | NOAEL (Monkey; [2]): 3 mg/kg-day | LOAEL (Monkey; chronic, duration: 26 weeks, M, Cynomolgus, Hepatic: 36% increase in absolute liver weight at ?3 mg/kg/day / increased serum triglyceride levels at 30/20 mg/kg/day): 3 mg/kg-day | NOAEL (Monkey; chronic, duration: 26 weeks, M, Cynomolgus, Immunotoxicological: No histological alterations + Neurological: No histological alterations + Reproductive: No histological alterations): 20 mg/kg-day | LOAEL (Monkey; short-term, duration: 2 weeks, M/F, Rhesus, Death: Unspecified number out of four died on week 2): 100 mg/kg-day | NOAEL (Monkey; subchronic, duration: 30 days, M, Cynomolgus, Endocrine: No alterations in serum levels of thyroid hormones and TSH and histopathology of adrenals + Reproductive: No alterations in serum…): 20 mg/kg-day | NOAEL (Monkey; subchronic, duration: 90 days, M/F, Rhesus): 30 mg/kg-day | LOAEL (Monkey; subchronic, duration: 90 days, M/F, Rhesus, Body Weight: 33% body weight loss by week 6 + Death: One male and two females died during weeks 7-12): 30 mg/kg-day | NOAEL (Monkey; subchronic, duration: 90 days, M/F, Rhesus, Body Weight: 33% body weight loss by week 6 + Gastrointestinal: Emesis + Immunotoxicological: Atrophy of lymphoid follicles in spleen and …): 10 mg/kg-day | LOAEL (Monkey; subchronic, duration: 90 days, M/F, Rhesus, Gastrointestinal: Emesis + Immunotoxicological: Atrophy of lymphoid follicles in spleen and lymph nodes + Neurological: Hypoactivity and …): 30 mg/kg-day | NOAEL (Monkey; subchronic, duration: 90 days, M/F, Rhesus, Reproductive: No histological alterations in testes or ovaries): 100 mg/kg-day | LOAEL (Oryctolagus sp.; Albino, Ocular: Moderate eye irritation): 100 mg | LOAEL (Oryctolagus sp.; M, New Zealand, Death: 14-day LD50): 4300 mg/kg-day | NOAEL (Oryctolagus sp.; duration: 24 hours, Albino): 500 mg | LOEL (Bird; PHA skin test (DTH response)): 2.1 mg/kg-day | NOEL (Bird; PHA skin test (DTH response)): 0.2 mg/kg-day | NOEL (Bird; bacteremia (subsequent to E. coli challenge) + cellulitis (subsequent to E. coli challenge) + chemiluminescence of ROS produced by innate …): 2.1 mg/kg-day | LOEL (Labeo boga; [3]): 50 mg/L | NOEL (Labeo boga; [3]): 10 mg/L | LOEL (Labeo boga; short-term, duration: 7 day, M, Medaka, liver TNF-alpha/Beta-actin mRNA ratio): 10 mg/L | LOEL (Labeo boga; short-term, duration: 15 day, M/F, Medaka, c-type lysozyme mRNA expression): 1 mg/L | NOEL (Labeo boga; short-term, duration: 15 day, M/F, Medaka, complement component C3-1 mRNA expression): 1 mg/L | LOEL (Labeo boga; short-term, duration: 21 day, M/F, Atlantic Salmon, cortisol): 0.1 mg/L | LOEL (Labeo boga; short-term, duration: 21 day, M/F, mRNA expression levels of IgD in spleen + mRNA expression levels of IgZ in spleen + mRNA expression levels of IL-21 in spleen + mRNA …): 0.05 mg/L | LOEL (Labeo boga; [4]): 0.1 mg/L | NOEL (Labeo boga; [4]): 0.05 mg/L | LOEL (Labeo boga; subchronic, duration: 48 day, M/F, Atlantic Salmon, cortisol): 0.1 mg/L | NOEL (Labeo boga; subchronic, duration: 48 day, M/F, Atlantic Salmon, fresh weight + length + thymus: thymus somatic index + thymus: thymus volume): 0.1 mg/L | LOEL (Labeo boga; subchronic, duration: 56 day, M/F, Atlantic Salmon, cortisol): 0.1 mg/L

[F-].[Na+] [Sodium fluoride]
LOAEL (Megascops sp.): 32 mg/kg-day | NOAEL (Megascops sp.): 7.8 mg/kg-day | LOAEL (Neovison sp.): 52.8 mg/kg-day | NOAEL (Neovison sp.): 31.4 mg/kg-day
